Laboratory results from US20090214439A1, “Fluorinated Carbohydrates and Their Use in Tumor Visualization, Tissue Engineering, and Cancer Chemotherapy” (Trustees of Tufts College, priority 2006, published 2009).

How the values were obtained:
[1] = tested on: BJA-B K20 cells (deficient in UDP-GlcNAc 2-epimerase); test: Replacement of Neu5Ac with unnatural sialic acids in hyposialylated cells; format: cell-based, human
Experimental: (§1) To visualize and quantify the sialic acid incorporation on cell surfaces, 1,2-diamino-4,5-methylenedioxybenzene (DMB) was used as a fluorogenic reagent for labeling α-keto acids (FIG. 4). [Hara, S.; Yamaguchi, M.; Takemori, Y.; Furuhata, K.; Ogura, H.; Nakamura, M. “Determination of Mono-O-Acetylated N-Acetylneuraminic Acids in Human and Rat Sera by Fluorometric High-Performance Liquid-Chromatography” Anal. Biochem. 1989, 179, 162-6.] Briefly, the membrane fraction was obtained after incubation with a given compound (200 μM typical, 900 μM maximum) for 3 days. The membrane pellet was then hydrolyzed by use of 2 M AcOH at 80° C. and then allowed them to react with DMB to yield the corresponding quinoxalinone derivatives. The samples were analyzed by HPLC using a fluorescence detector. The retention times (by comparison to an authentic sample) provide information about the identity, LC ESI-MS unambiguously confirms the molecular structure, and integration of the peaks gives quantitative information on the relative amounts of membrane-derived sialic acids.
Replacement of Neu5Ac with Unnatural Sialic Acids in Hyposialylated Cells. […] Using these hyposialylated cell lines incorporation of fluorinated precursors was investigated and the overall percentage of sialic acids on cell surfaces that are fluorinated was assessed. […]

[2] = tested on: HL60-I cells (deficient in UDP-GlcNAc 2-epimerase); test: as above; format: cell-based
Experimental: as §1
Replacement of Neu5Ac with Unnatural Sialic Acids in Hyposialylated Cells. Cell lines HL60-I and BJA-B K20, variants respectively of the parent HL60 and human B-cell lymphoma (BJA-B), are deficient in UDP-GlcNAc 2-epimerase and show a global suppression of sialylation of glycoconjugates, including expressing mostly unsialylated Lewis-X. [Keppler, 0. T.; Hinderlich, S.; Langner, J.; Schwartz-Albiez, R.; Reutter, W.; Pawlita, M. “UDP-GlcNAc 2-epimerase: A regulator of cell surface sialylation” Science 1999, 284, 1372-6.] Using these hyposialylated cell lines incorporation of fluorinated precursors was investigated and the overall percentage of sialic acids on cell surfaces that are fluorinated was assessed. Both HL60-I and BJA-B K20 cell lines served as metabolic hosts for fluorinated sialic acids 5-N-trifluoropropyl-Neu (5e) and 5-N-trifluorobutyl-Neu (5g) (FIG. 8). […] In contrast, untreated cells only contained Neu5Ac. […]

Jurkat cells = test: Cell surface expression of sialic acids, DMB labeling with fluorescence HPLC; format: cell-based; settings: DMB conjugates of membrane fraction
Text: (§2) Cell Surface Expression of Fluorinated Sialic Acids. […] These experiments assay the overall action of multiple biosynthetic steps downstream of sialic acid, namely activation, processing and attachment to proteins and lipids and finally successful trafficking to the membrane. As mentioned above, six derivatives of mannosamine have been prepared and tested. In order to bypass the most stringent step in sialic acid biosynthetic pathway (ManNAc 6-kinase), fluorinated sialic acids were also prepared for direct use in feeding experiments. Sialic acids were synthesized as described above by enzymatic conversion of mannosamines to the corresponding sialic acids. Fluorine containing sialic acids were fed to Jurkat, HeLa and HL-60 cells in the peracetylated, methyl ester form since Reutter and Bertozzi have independently shown that exogenous addition of sialic acids in this form results in efficient incorporation of a wide range of derivatives. The degree of fluorination on the N-acyl chain was varied from a single terminal trifluoromethyl group to a —C11F17 group.
(§3) To visualize and quantify the sialic acid incorporation on cell surfaces, 1,2-diamino-4,5-methylenedioxybenzene (DMB) was used as a fluorogenic reagent for labeling α-keto acids (FIG. 4). [Hara, S.; Yamaguchi, M.; Takemori, Y.; Furuhata, K.; Ogura, H.; Nakamura, M. “Determination of Mono-O-Acetylated N-Acetylneuraminic Acids in Human and Rat Sera by Fluorometric High-Performance Liquid-Chromatography” Anal. Biochem. 1989, 179, 162-6.] Briefly, the membrane fraction was obtained after incubation with a given compound (200 μM typical, 900 μM maximum) for 3 days. […] The samples were analyzed by HPLC using a fluorescence detector. The retention times (by comparison to an authentic sample) provide information about the identity, LC ESI-MS unambiguously confirms the molecular structure, and integration of the peaks gives quantitative information on the relative amounts of membrane-derived sialic acids.

HL60-II cells = test: Incorporation of unnatural sialic acids in highly sialylated cells; format: cell-based
Experimental: as §1
(§4) Roughly 75% of the total sialic acid (using substrate 5g) on the cell surface was fluorinated using these cell lines.

[3] = tested on: cell surfaces (Jurkat, HeLa and HL-60 cells); test: Cell surface expression of sialic acids, DMB labeling with fluorescence HPLC (cell line not stated); format: cell-based; settings: 200 μM typical, 900 μM maximum, 3 days
Text: Cell Surface Expression of Fluorinated Sialic Acids. […] These experiments assay the overall action of multiple biosynthetic steps downstream of sialic acid, namely activation, processing and attachment to proteins and lipids and finally successful trafficking to the membrane. As mentioned above, six derivatives of mannosamine have been prepared and tested. In order to bypass the most stringent step in sialic acid biosynthetic pathway (ManNAc 6-kinase), fluorinated sialic acids were also prepared for direct use in feeding experiments. Sialic acids were synthesized as described above by enzymatic conversion of mannosamines to the corresponding sialic acids. […]
To visualize and quantify the sialic acid incorporation on cell surfaces, 1,2-diamino-4,5-methylenedioxybenzene (DMB) was used as a fluorogenic reagent for labeling α-keto acids (FIG. 4). […] The samples were analyzed by HPLC using a fluorescence detector. The retention times (by comparison to an authentic sample) provide information about the identity, LC ESI-MS unambiguously confirms the molecular structure, and integration of the peaks gives quantitative information on the relative amounts of membrane-derived sialic acids. […]

[4] = tested on: K88 (a sub clone of BJA-B); test: Incorporation of unnatural sialic acids in highly sialylated cells; format: cell-based, human
Experimental: as §1, §4

[5] = tested on: HL60 cells adhering to fibronectin; test: Static adhesion of labeled cells to fibronectin-coated plates; format: cell-based; settings: HL60 cells incubated 72 h with 200 μM compound; PMA or thapsigargin stimulation; 1 hour adhesion
Experimental: FIG. 9 depicts (a) adhesion of HL60 cells to plates coated with fibronectin in the presence of thapsigargin (Tg). The cells were incubated with compounds for 72 hours, washed with PBS and then allowed to adhere to plates. After 1 hr, unattached cells were removed by rinsing with PBS and then the number of cells quantified by addition of calcein-AM and fluorescence counting. (b) Similar assay as in (a) but with compounds 4a and 4d (data in (b) is taken from Horstkorte, R.; Rau, K.; Laabs, S.; Danker, K.; Reutter, W. “Biochemical engineering of the N-acyl side chain of sialic acid leads to increased calcium influx from intracellular compartments and promotes differentiation of HL60 cells” FEBS Lett. 2004, 571, 99-102).
Adhesion of Labeled Cells on Collagen and Fibronectin. The ability of cells labeled with fluorinated carbohydrates to adhere to fibronectin and collagen was also investigated. […] To quantify adhesion, 96-well plates were coated with fibronectin or collagen (10 μg/mL in PBS) for 16 hours at 4° C. followed by treatment with 1% BSA for 4 hours to block nonspecific adhesion sites. […] Unattached cells were washed away by rinsing with PBS and the cells were quantified by addition of the fluorogenic esterase substrate calcein-AM and followed by measurement of emission at 520 nm in a microtiter fluorescence plate reader. […]

HeLa cells = test: Cell surface expression of sialic acids, DMB labeling with fluorescence HPLC; format: cell-based
Text: as §2, §3

[6] = tested on: HL60 cells adhering to fibronectin; settings: HL60 cells cultivated in the presence of the compound; literature data (Villavicencio-Lorini 2002; Horstkorte 2004); cited from earlier work

Compound	incorporation on the cell surface by LC ESI-MS [1]	incorporation on the cell surface by LC ESI-MS [2]	cell surface incorporation / expression (Jurkat cells)	incorporation of the fluorinated sialic acid (HL60-II cells)	incorporation on cell surfaces as sialoglycoconjugates [3]	incorporation of the fluorinated sialic acid [4]	adhesion to fibronectin compared to untreated cells [5]	cell surface sialylation coming from exogenously added compound ([2]; DMB labeling and fluorescence HPLC)	total sialic acid on the cell surface replaced (HeLa cells)	cell surface incorporation / expression (HeLa cells; DMB conjugates of membrane fraction)	total sialic acid on the cell surface that was fluorinated (HL60-II cells)	total sialic acid on the cell surface that was fluorinated [4]	decrease of adhesion to fibronectin compared to untreated cells [5]	increase of adhesion to fibronectin [6]
O=C(CC(F)(F)F)N[C@H]1[C@H]([C@H](O)[C@H](O)CO)OC(O)(C(=O)O)C[C@@H]1O (stereo partly shown) [Compound 5e, 5-N-trifluoropropyl-Neu]	unambiguously confirmed	unambiguously confirmed	efficiently incorporated	readily incorporated	escorted and appended to cellular surfaces	readily incorporated	decreased							
5-N-trifluorobutyl-Neu [Compound 5g]	unambiguously confirmed	unambiguously confirmed		readily incorporated	escorted and appended to cellular surfaces	readily incorporated		~75%	75%	Cell surface expression of 5g	Roughly 75%	Roughly 75%	~70%	
CCC(=O)N[C@@H]1C(O)O[C@H](CO)[C@@H](O)[C@@H]1O (stereo partly shown) [Compound 4d, N-propanoyl-mannosamine]														more than 130%
